{"source": "patent US20200368234A1", "about": "“PHOTORECEPTOR GENE MODULATOR PHOTOREGULIN 3 FOR TREATMENT OF RETINAL DISEASE” (University of Washington, priority 2017, published 2020)", "key": {"Rhodopsin": {"test_system": "Rhodopsin", "assay": "Rhodopsin mRNA expression (qPCR) in dissociated retinal cell cultures", "type": "cell-based", "details": "P5 mouse dissociated retinal cultures, 2 days treatment, vs DMSO and PR1", "excerpt": "In order to identify compounds that may target Nr2e3 a cheminformatic strategy was used to screen hit compounds previously identified to interact with recombinant Nr2e3 in transfected CHO-S cells in a luciferase-based assay (PubChem Assay IDs: 602229, 624378, 624394, and 651849). As a secondary screen for initial hits, dissociated primary retinal cell cultures were used and assayed Rhodopsin, because it is a well-defined target of Nr2e3 signaling and is expressed at high levels exclusively in rod photoreceptors. Retina were dissociated from postnatal day 5 (P5) mice and cultured them in media containing the small molecules. After treatment for 2 days, the cells were collected for qPCR analysis and quantified Rhodopsin expression. […] This finding was confirmed with an immunofluorescence assay to examine Rhodopsin protein expression in dissociated retinal cultures from P5 mice. […]\n(§1) RNA from retinas was isolated using TRIzol (Invitrogen) and cDNA was synthesized using the iScript cDNA synthesis kit (Bio-Rad). SSO Fast (Bio-Rad) was used for quantitative real-time PCR. For analysis, values were normalized to Gapdh (ΔCt) and ΔΔCt between DMSO and compound-treated samples was expressed as percent of DMSO treated controls (100*2^ΔΔCt). […]"}, "Rho^P23H mice": {"test_system": "Rho^P23H mice", "assay": "Photoreceptor degeneration in Rho^P23H mice: histology and qPCR at P21", "type": "in vivo, mouse", "details": "10 mg/kg i.p. from P12-P14 until P21, vs DMSO vehicle", "description": "FIG. 3A illustrates the timeline of photoreceptor degeneration in the Rhodopsin^P23H mouse and experimental design.\nTo determine whether photoreceptor degeneration can be prevented, Rho^P23H mice were treated with PR3 or vehicle from P12-P14 until P21, during the period of rod photoreceptor death (FIG. 3A). At P21, visual function was assessed with ERGs and euthanized the mice for histological and qPCR analyses. At P21, control Rho^P23H mice had only 2-3 rows of photoreceptors remaining in their ONL (FIGS. 3B and 3C). Rods were sparse and there were few remaining cones (S Opsin+ and Cone Arrestin+ photoreceptors). Control Rho^P23H mice had minimal scotopic and photopic b-wave amplitudes by ERG analysis (FIGS. 4A, 4B, 4D, and 4E). […]\nPhotoregulin3 was identified by searching previous small molecule screens with SciFinder and PubChem for Nr2e3 interacting molecules. It was initially obtained from ChemDiv and then synthesized and purified in large quantities in the lab after initial screening. […]\nas §1"}}, "note": "“Also recorded” adds a separate entry of the source."}
{"smiles": "COc1cc2nc(CN3CC=C(c4ccccc4)CC3)nc(O)c2cc1OC", "note": "[PR3]", "values": [{"measurement": "Rhodopsin mRNA expression", "setting": "Rhodopsin", "result": "robust reduction in Rhodopsin compared to DMSO and PR1 treatment at all concentrations"}, {"measurement": "expression of photoreceptor genes in whole retinas (qPCR)", "setting": "Rho^P23H mice", "result": "greater expression of photoreceptor genes Recoverin, Rhodopsin, and S Opsin; also recorded: more expression of Recoverin and Rhodopsin"}, {"measurement": "rows of photoreceptors (DAPI+ cells) in the ONL", "setting": "Rho^P23H mice", "result": "greater survival of photoreceptors; also recorded: several rows of rod and cone photoreceptors in the ONL"}]}
